In the NIST ThermoML archive (doi:10.1021/je301095j):

Test: xn = mol fraction of the nth substance listed
Conditions: 101 kPa, Liquid; for kinematic viscosity: Capillary tube (Ostwald / Ubbelohde) method; for mass density: Vibrating tube method

COCCOC [1,2-dimethoxyethane] + CCCCCCCCO
Conditions	kinematic viscosity [m2/s]	mass density [kg/m3]
283.15 K, x1 = 0.06697	1.152e-05	833.91
283.15 K, x1 = 0.1224	8.912e-06	835.41
283.15 K, x1 = 0.2171	5.951e-06	838.23
283.15 K, x1 = 0.3108	4.177e-06	841.31
283.15 K, x1 = 0.4036	3.014e-06	844.65
283.15 K, x1 = 0.5046	2.16e-06	848.72
283.15 K, x1 = 0.593	1.65e-06	852.66
283.15 K, x1 = 0.6949	1.225e-06	857.74
283.15 K, x1 = 0.7907	9.43e-07	863.1
283.15 K, x1 = 0.8983	7.18e-07	870.05
283.15 K, x1 = 0.9329	6.62e-07	872.53
293.15 K, x1 = 0.06547	8.238e-06	826.71
293.15 K, x1 = 0.1085	6.898e-06	827.8
293.15 K, x1 = 0.208	4.672e-06	830.48
293.15 K, x1 = 0.3098	3.277e-06	833.51
293.15 K, x1 = 0.4069	2.39e-06	836.71
293.15 K, x1 = 0.5036	1.79e-06	840.25
293.15 K, x1 = 0.5981	1.37e-06	844.1
293.15 K, x1 = 0.6905	1.07e-06	848.29
293.15 K, x1 = 0.7963	8.12e-07	853.72
293.15 K, x1 = 0.896	6.42e-07	859.6
293.15 K, x1 = 0.9434	5.8e-07	862.69
303.15 K, x1 = 0.05281	6.333e-06	819.29
303.15 K, x1 = 0.2029	3.707e-06	822.86
303.15 K, x1 = 0.2197	3.499e-06	823.3
303.15 K, x1 = 0.299	2.72e-06	825.44
303.15 K, x1 = 0.3826	2.122e-06	827.89
303.15 K, x1 = 0.4984	1.531e-06	831.64
303.15 K, x1 = 0.6107	1.14e-06	835.78
303.15 K, x1 = 0.6969	9.2e-07	839.34
303.15 K, x1 = 0.8038	7.15e-07	844.34
303.15 K, x1 = 0.892	5.86e-07	849.04
303.15 K, x1 = 0.935	5.35e-07	851.56
313.15 K, x1 = 0.05472	4.688e-06	812.24
313.15 K, x1 = 0.1071	3.922e-06	813.31
313.15 K, x1 = 0.2145	2.8e-06	815.67
313.15 K, x1 = 0.2882	2.251e-06	817.43
313.15 K, x1 = 0.4028	1.643e-06	820.44
313.15 K, x1 = 0.5028	1.27e-06	823.38
313.15 K, x1 = 0.5955	1.008e-06	826.4
313.15 K, x1 = 0.6897	8.07e-07	829.8
313.15 K, x1 = 0.7898	6.45e-07	833.92
313.15 K, x1 = 0.8945	5.16e-07	838.85
313.15 K, x1 = 0.9681	4.44e-07	842.83

COCCOC [1,2-dimethoxyethane] + CCCCCO
Conditions	kinematic viscosity [m2/s]	mass density [kg/m3]
283.15 K, x1 = 0.04484	5.31e-06	824.28
283.15 K, x1 = 0.07064	–	825.63
283.15 K, x1 = 0.1021	4.09e-06	827.27
283.15 K, x1 = 0.2104	2.73e-06	833.01
283.15 K, x1 = 0.3077	2.01e-06	838.24
283.15 K, x1 = 0.4078	1.54e-06	843.7
283.15 K, x1 = 0.4902	1.27e-06	848.25
283.15 K, x1 = 0.5751	–	853
283.15 K, x1 = 0.712	8.27e-07	860.78
283.15 K, x1 = 0.7978	7.25e-07	865.75
283.15 K, x1 = 0.8137	–	866.69
283.15 K, x1 = 0.8957	6.35e-07	871.5
283.15 K, x1 = 0.9347	–	873.81
283.15 K, x1 = 0.9473	5.96e-07	874.57
293.15 K, x1 = 0.04837	3.98e-06	816.95
293.15 K, x1 = 0.07064	–	818.04
293.15 K, x1 = 0.09244	3.32e-06	819.11
293.15 K, x1 = 0.1962	–	824.24
293.15 K, x1 = 0.2048	2.24e-06	824.66
293.15 K, x1 = 0.3078	1.65e-06	829.83
293.15 K, x1 = 0.408	1.28e-06	834.94
293.15 K, x1 = 0.497	1.05e-06	839.55
293.15 K, x1 = 0.595	8.65e-07	844.67
293.15 K, x1 = 0.6985	7.25e-07	850.18
293.15 K, x1 = 0.7088	–	850.73
293.15 K, x1 = 0.7978	6.17e-07	855.54
293.15 K, x1 = 0.8137	–	856.41
293.15 K, x1 = 0.896	5.4e-07	860.92
293.15 K, x1 = 0.9071	–	861.54
293.15 K, x1 = 0.9541	5.01e-07	864.14
303.15 K, x1 = 0.04441	3.14e-06	809.26
303.15 K, x1 = 0.1118	2.45e-06	812.32
303.15 K, x1 = 0.1947	1.89e-06	816.15
303.15 K, x1 = 0.3088	1.39e-06	821.48
303.15 K, x1 = 0.4056	1.11e-06	826.06
303.15 K, x1 = 0.4948	9.29e-07	830.35
303.15 K, x1 = 0.6215	–	836.52
303.15 K, x1 = 0.7076	6.5e-07	840.79
303.15 K, x1 = 0.8038	5.69e-07	845.62
303.15 K, x1 = 0.8519	–	848.06
303.15 K, x1 = 0.8998	5.08e-07	850.52
303.15 K, x1 = 0.9524	4.8e-07	853.23
313.15 K, x1 = 0.06014	2.34e-06	802.42
313.15 K, x1 = 0.0969	2.08e-06	803.97
313.15 K, x1 = 0.1159	–	804.76
313.15 K, x1 = 0.2221	–	809.31
313.15 K, x1 = 0.3249	1.13e-06	813.76
313.15 K, x1 = 0.4049	9.58e-07	817.27
313.15 K, x1 = 0.4955	8.09e-07	821.28
313.15 K, x1 = 0.599	6.82e-07	825.94
313.15 K, x1 = 0.7001	5.86e-07	830.56
313.15 K, x1 = 0.801	5.16e-07	835.25
313.15 K, x1 = 0.9031	4.59e-07	840.05
313.15 K, x1 = 0.9604	4.34e-07	842.78

COCCOC [1,2-dimethoxyethane] + CCO
Conditions	kinematic viscosity [m2/s]	mass density [kg/m3]
283.15 K, x1 = 0.05379	1.552e-06	805.91
283.15 K, x1 = 0.09719	1.381e-06	811.83
283.15 K, x1 = 0.2113	1.08e-06	825.56
283.15 K, x1 = 0.2968	9.35e-07	834.32
283.15 K, x1 = 0.4056	8.09e-07	843.94
283.15 K, x1 = 0.4865	7.45e-07	850.18
283.15 K, x1 = 0.5971	6.82e-07	857.71
283.15 K, x1 = 0.6948	6.38e-07	863.49
283.15 K, x1 = 0.8257	5.98e-07	870.24
283.15 K, x1 = 0.8749	5.83e-07	872.52
283.15 K, x1 = 0.9456	5.71e-07	875.57
293.15 K, x1 = 0.05746	1.304e-06	797.66
293.15 K, x1 = 0.09986	1.17e-06	803.22
293.15 K, x1 = 0.1453	1.07e-06	808.77
293.15 K, x1 = 0.2138	9.37e-07	816.42
293.15 K, x1 = 0.2947	8.24e-07	824.42
293.15 K, x1 = 0.399	7.25e-07	833.43
293.15 K, x1 = 0.4877	6.64e-07	840.1
293.15 K, x1 = 0.5965	6.09e-07	847.24
293.15 K, x1 = 0.6885	5.75e-07	852.56
293.15 K, x1 = 0.8249	5.39e-07	859.38
293.15 K, x1 = 0.8772	5.26e-07	861.72
293.15 K, x1 = 0.9542	5.13e-07	864.93
303.15 K, x1 = 0.04309	1.14e-06	786.92
303.15 K, x1 = 0.1038	9.89e-07	794.71
303.15 K, x1 = 0.2082	8.13e-07	806.41
303.15 K, x1 = 0.2955	7.17e-07	814.8
303.15 K, x1 = 0.3926	6.39e-07	822.94
303.15 K, x1 = 0.497	5.82e-07	830.54
303.15 K, x1 = 0.5918	5.43e-07	836.55
303.15 K, x1 = 0.6991	5.1e-07	842.5
303.15 K, x1 = 0.8103	4.86e-07	847.89
303.15 K, x1 = 0.8876	4.73e-07	851.26
303.15 K, x1 = 0.9199	4.68e-07	852.57
313.15 K, x1 = 0.04639	9.59e-07	778.57
313.15 K, x1 = 0.1049	8.49e-07	785.84
313.15 K, x1 = 0.211	7.05e-07	797.27
313.15 K, x1 = 0.2977	6.27e-07	805.28
313.15 K, x1 = 0.3787	5.75e-07	811.92
313.15 K, x1 = 0.4959	5.21e-07	820.25
313.15 K, x1 = 0.6512	4.7e-07	829.41
313.15 K, x1 = 0.6979	4.62e-07	831.83
313.15 K, x1 = 0.8168	4.39e-07	837.35
313.15 K, x1 = 0.8803	4.32e-07	840.03
313.15 K, x1 = 0.9384	4.23e-07	842.37
